Assay results taken from publication PMC10882719 (Frontiers in Neuroscience, 2024).
Like-named read-outs stand apart in the source and are kept apart here.

Key:
[1] = target: T1, serotonin (5HT) transporter (SERT) (Rattus norvegicus, UniProt P31652); experiment: Competitive radioligand binding, [3H]citalopram, rat brain membranes
T1 construct: Rat brains were dissected and tissue was homogenized in cold lysis buffer; from tissue; host or cells: rat brain membrane preparation
Description: (§1) All studies were performed at Gifford Bioscience, Ltd. (Birmingham, UK) according to standard protocols.
(§2) Radioligands used were: [^3H] Citalopram (PerkinElmer NET1039250UC); [^3H] Nisoxetine (PerkinElmer NET1084250UC); [^3H] WIN35428 (PerkinElmer NET1033250UC). Nonspecific compounds used were Citalopram (Tocris Bioscience 1,427); JHW007 (Tocris Bioscience 4,351); Nomifensine (Abcam ab146004). […] Rat brains were dissected and tissue was homogenized in cold lysis buffer, centrifuged at 100xg for 2 min and the supernatant was placed in a fresh tube. Supernatant was centrifuged at 13,000 × g for 10 min at 4°C to re-pellet the cell lysate. The pellet was resuspended in fresh wash buffer (50 mM Tris–HCl; 5 mM MgCl2; 5 mM EDTA) and centrifuged a third time. The pellet was then resuspended in wash buffer containing 10% sucrose as a cryoprotectant, divided into aliquots (0.3 mL) and stored at −80°C. A sample of the homogenate was analyzed for protein content using the Sigma® BCA assay. On the day of the assay, the membrane preparation was thawed and the pellet resuspended in final assay buffer. […] Filters were then dried under a warm air stream, sealed in polyethylene, scintillation cocktail added, and the radioactivity counted in a Wallac® TriLux 1,450 MicroBeta counter. […] Ki was subsequently calculated using the Cheng-Prusoff equation.

[2] = target: T2, dopamine (DA) transporter (DAT) (Rattus norvegicus, UniProt P23977); experiment: Competitive radioligand binding, [3H]WIN35428, rat brain membranes
T2 construct: Rat brains were dissected and tissue was homogenized in cold lysis buffer; from tissue; host or cells: rat brain membrane preparation
Description: as §1, §2

5HT2C receptor = target: T3, 5HT2C receptor (Homo sapiens, UniProt P28335); experiment: GPCRmax screen, agonist mode, 5HT2C; format: cell-based; conditions: for % Agonist Activity: HTR2C
T3 construct: β-galactosidase enzyme fragment (enzyme fragment complementation reporter); host or cells: PathHunter cell lines
T3 sequence (P28335 33-458): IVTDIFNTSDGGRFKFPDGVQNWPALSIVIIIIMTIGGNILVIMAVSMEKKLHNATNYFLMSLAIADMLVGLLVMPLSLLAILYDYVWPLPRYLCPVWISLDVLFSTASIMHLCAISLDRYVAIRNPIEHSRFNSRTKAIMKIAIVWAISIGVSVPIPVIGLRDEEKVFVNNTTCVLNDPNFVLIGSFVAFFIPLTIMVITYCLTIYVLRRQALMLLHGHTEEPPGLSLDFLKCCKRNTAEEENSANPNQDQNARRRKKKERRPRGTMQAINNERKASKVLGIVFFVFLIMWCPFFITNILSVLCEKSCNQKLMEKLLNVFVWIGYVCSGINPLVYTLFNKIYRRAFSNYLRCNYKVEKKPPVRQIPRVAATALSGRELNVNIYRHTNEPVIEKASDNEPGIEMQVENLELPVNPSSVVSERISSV
Description: Studies were performed at Eurofins DiscoverX Corporation (Fremont, CA) using the GPCRmax assay according to the manufacturer’s protocols. […] Activity greater than 30% typically indicates agonist activity and inhibition greater than 50% indicates antagonist activity. This assay uses enzyme fragment complementation with […] as the functional reporter. When a GPCR is activated, […] is recruited and the reporter is detectable. GPCRmax offers a high-throughput screen of 168 GPCRs for agonist or antagonist activity. Briefly, PathHunter cell lines were propagated, seeded into 384-well microplates and incubated at 37°C. […] Microplates were read following signal generation with a PerkinElmer Envision™ instrument for chemiluminescent signal detection. Compound activity was analyzed using CBIS data analysis suite (ChemInnovation, CA) to determine raw values (RLU). For agonist mode assay, percentage activity was calculated using the following formula: % Activity =100% × (mean RLU of test sample - mean RLU of vehicle control) / (mean MAX control ligand - mean RLU of vehicle control). For antagonist mode assay, percentage inhibition was calculated using the following formula: % Inhibition =100% × (1 - (mean RLU of test sample - mean RLU of vehicle control) / (mean RLU of EC80 control - mean RLU of vehicle control)).

amygdala gene expression = experiment: RNA-seq differential gene expression, amygdala; format: in vivo, rat; conditions: 10 mg/kg IP, 8 h
[3] = test system: frontal cortex gene expression; experiment: RNA-seq differential gene expression, frontal cortex; format: in vivo, rat; conditions: 10 mg/kg IP, 8 h; for Number of genes significantly regulated: vs vehicle
[4] = test system: myelin basic protein (MBP); experiment: Immunohistochemistry of myelin basic protein in brain; format: in vivo, rat; conditions: 10 mg/kg IP, 24 h, vs vehicle
Description: The in-life portion of the study was conducted at WuXi Apptec (Cranbury, NJ). Sectioning and staining of brains took place at Neuroscience Associates (NSA, Knoxville, TN). […] Brains were post-fixed in PFA before shipment to NSA for processing and staining. Hemisected brains were mounted, sectioned and stained using standard protocols with myelin-basic protein primary antibody (MBP SMI-99, 1:5000, Biolegend, San Diego, CA) and anti-mouse biotinylated secondary antibody (BA-2001, Vector Laboratories, Newark, CA). Slides were imaged using a Huron Digital Pathology TissueScope LE120 whole slide scanning system. 20x objective was used with a 0.4um/pixel resolution.

T2 sequence (P23977 whole entry): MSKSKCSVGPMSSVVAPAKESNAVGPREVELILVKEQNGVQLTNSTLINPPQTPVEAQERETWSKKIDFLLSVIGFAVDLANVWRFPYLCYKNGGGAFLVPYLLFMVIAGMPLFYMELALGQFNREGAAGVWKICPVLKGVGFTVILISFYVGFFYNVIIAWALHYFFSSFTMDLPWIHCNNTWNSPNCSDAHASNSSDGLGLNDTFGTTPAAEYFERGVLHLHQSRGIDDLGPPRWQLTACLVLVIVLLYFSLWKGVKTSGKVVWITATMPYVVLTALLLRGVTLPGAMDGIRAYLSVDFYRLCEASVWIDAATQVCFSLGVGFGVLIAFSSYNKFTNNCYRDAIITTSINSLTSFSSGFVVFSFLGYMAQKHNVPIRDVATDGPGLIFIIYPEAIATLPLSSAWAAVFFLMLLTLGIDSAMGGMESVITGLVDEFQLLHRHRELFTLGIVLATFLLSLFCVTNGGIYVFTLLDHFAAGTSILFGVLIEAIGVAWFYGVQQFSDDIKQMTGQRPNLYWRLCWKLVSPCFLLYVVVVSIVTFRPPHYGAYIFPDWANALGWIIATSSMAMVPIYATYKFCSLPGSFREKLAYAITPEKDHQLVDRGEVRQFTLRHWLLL
T1 sequence (P31652 whole entry): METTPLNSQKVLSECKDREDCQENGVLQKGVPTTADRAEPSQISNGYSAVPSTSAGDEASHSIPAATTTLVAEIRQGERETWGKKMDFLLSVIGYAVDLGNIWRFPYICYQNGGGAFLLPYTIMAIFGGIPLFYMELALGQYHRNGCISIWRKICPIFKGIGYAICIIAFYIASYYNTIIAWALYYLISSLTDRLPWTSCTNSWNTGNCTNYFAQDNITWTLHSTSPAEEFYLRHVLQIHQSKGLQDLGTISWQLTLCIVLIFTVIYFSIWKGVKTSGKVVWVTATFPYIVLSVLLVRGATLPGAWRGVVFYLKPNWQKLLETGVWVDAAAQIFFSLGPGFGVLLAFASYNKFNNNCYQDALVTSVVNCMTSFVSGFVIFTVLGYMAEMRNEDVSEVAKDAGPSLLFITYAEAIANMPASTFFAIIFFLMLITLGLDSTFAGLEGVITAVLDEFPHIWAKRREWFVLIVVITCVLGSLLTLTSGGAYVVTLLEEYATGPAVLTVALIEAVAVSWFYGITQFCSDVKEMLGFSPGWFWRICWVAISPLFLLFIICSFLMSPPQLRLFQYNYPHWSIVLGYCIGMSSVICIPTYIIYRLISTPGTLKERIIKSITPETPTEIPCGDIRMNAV

Structure (SMILES): CNC(C)Cc1ccc2c(c1)OCO2 (stereo not drawn) [MDMA, 3,4-Methylenedioxy methamphetamine, reference compound]
- Ki ([1]; read-out: Ki, SERT, competitive radioligand binding, rat brain membranes, Cheng-Prusoff): 2.62 µM
- Ki ([2]; read-out: Ki, DAT, competitive radioligand binding, rat brain membranes, Cheng-Prusoff): 5.11 µM
- % agonist activity, 5HT2C (5HT2C receptor; 10 μM, cutoff 30% activity): 28.0%
- % Agonist Activity (5HT2C receptor; 1 uM): 15.9%
- % Agonist Activity (5HT2C receptor; 10 uM): 28%
- Additional genes significantly regulated by this drug only (amygdala gene expression; vs vehicle): 1,313
- More genes significantly regulated compared to methylone ([3]; frontal cortex): ~ 72%
- Number of genes significantly regulated ([3]; frontal cortex): 825 genes
- MBP expression, basolateral nucleus of the amygdala [4]: significant reduction
- MBP expression, central nucleus of the amygdala [4]: significant reduction
- MBP expression, cortex (control region) [4]: No change

Structure (SMILES): CNC(C)C(=O)c1ccc2c(c1)OCO2 (stereo not drawn) [methylone]
- Ki [1]: 4.15 µM
- Ki [2]: 5.73 µM
- % Agonist Activity (5HT2C receptor; 1 uM): 1.4%
- % Agonist Activity (5HT2C receptor; 10 uM): 3.7%
- Share of genes regulated by this drug that are also regulated by the other drug (amygdala gene expression): 87%
- Induction of BDNF, increase compared with controls ([3]; RNA-seq): ~ 60%
- Number of genes significantly regulated ([3]; frontal cortex): 480 genes
- MBP expression, basolateral nucleus of the amygdala [4]: significant reduction
- MBP expression, central nucleus of the amygdala [4]: significant reduction
- MBP expression, cortex (control region) [4]: No change
